33 compounds from US20200030355A1, “COMBINATION THERAPY FOR TREATING CANCER” (Epizyme, Inc., priority 2014, published 2020) can be followed below.

Molecules are shown by their SMILES. Where a name gives a salt, the structure may show the parent alone.

This test has as its system MOLM-13 cells. The test can be described thus: EPZ-5676 300 nM 7-day pre-treatment, then second compound 72 hours, ATPLite, IC50 shift (Example 6). The test is classed as cell-based, human. The following applies: 300 nM EPZ-5676 or DMSO 7-day pre-treatment, then 2nd compound 72 hours, Synergy = IC50 of 2nd compound decreased by 2-fold or more vs DMSO control. The procedure:
Cells were then equilibrated in incubators for 24 hours before treatment with a second compound. Treated assay plates were incubated with a second compound for 72 hours. After this time, plates were developed for endpoint analysis using ATPLite to measure ATP content, which is used as an indicator of cell viability.
“N/D” means that IC50 of the second compound could not be determined for both conditions.
In the case of `Clc1ccc(C2(c3ccc(-c4cn[nH]c4)cc3)CCNCC2)cc1` [AT7867], the “MOLM-13 (summary of combination study: EPZ-5676 + 2nd compound)” value is “Synergy (considered synergistic if the IC50 value of the second compound decreased by 2-fold or more when EPZ-5676 was added as compared to the DMSO control)”.

On to `CC1=C(/C=C/C(C)=C\C=C\C(C)=C\C(=O)O)C(C)(C)CCC1` [Alitretinoin], for which the “MOLM-13 (summary of combination study: EPZ-5676 + 2nd compound)” value is reported as “Synergy (considered synergistic if the IC50 value of the second compound decreased by 2-fold or more when EPZ-5676 was added as compared to the DMSO control)”.

Consider `CC(=O)OC[C@H]1O[C@@H]([S-])[C@H](OC(C)=O)[C@@H](OC(C)=O)[C@@H]1OC(C)=O.CCP(CC)CC.[Au+]` [Auranofin], for which the “MOLM-13 (summary of combination study: EPZ-5676 + 2nd compound)” value is reported as “Synergy (considered synergistic if the IC50 value of the second compound decreased by 2-fold or more when EPZ-5676 was added as compared to the DMSO control)”.

Turning to `Cc1cc(Cl)cc(OCCn2cc(F)cn2)c1-c1nc(N)nc2c1CN(C(=O)NCC(C)(F)F)C2` [BEP800], the “MOLM-13 (summary of combination study: EPZ-5676 + 2nd compound)” value is on record as “Synergy (considered synergistic if the IC50 value of the second compound decreased by 2-fold or more when EPZ-5676 was added as compared to the DMSO control)”.

As to `COc1cc2nc(N3CCCN(C)CC3)nc(NC3CCN(Cc4ccccc4)CC3)c2cc1OC` [BIX01294], the “MOLM-13 (summary of combination study: EPZ-5676 + 2nd compound)” value is reported as “Synergy (considered synergistic if the IC50 value of the second compound decreased by 2-fold or more when EPZ-5676 was added as compared to the DMSO control)”.

With `Cn1ncnc1[C@H]1c2n[nH]c(=O)c3cc(F)cc(c23)N[C@@H]1c1ccc(F)cc1` [BMN 673], the “MOLM-13 (summary of combination study: EPZ-5676 + 2nd compound)” value is recorded as “Synergy (considered synergistic if the IC50 value of the second compound decreased by 2-fold or more when EPZ-5676 was added as compared to the DMSO control)”.

With `Cc1ccc2nc(NCCN)c3ncc(C)n3c2c1` [BMS 345541], the “MOLM-13 (summary of combination study: EPZ-5676 + 2nd compound)” value was “Synergy (considered synergistic if the IC50 value of the second compound decreased by 2-fold or more when EPZ-5676 was added as compared to the DMSO control)”.

Consider `C[C@@]1(C(=O)Nc2ccc(F)nc2)CCCN1c1nc(Nc2cc(C3CC3)n[nH]2)c2cccn2n1` [BMS-754807], for which the “MOLM-13 (summary of combination study: EPZ-5676 + 2nd compound)” value is recorded as “Synergy (considered synergistic if the IC50 value of the second compound decreased by 2-fold or more when EPZ-5676 was added as compared to the DMSO control)”.

Turning to `CCS(=O)(=O)N1CC(CC#N)(n2cc(-c3ncnc4[nH]ccc34)cn2)C1` [Baricitinib], the “MOLM-13 (summary of combination study: EPZ-5676 + 2nd compound)” value is reported as “Synergy (considered synergistic if the IC50 value of the second compound decreased by 2-fold or more when EPZ-5676 was added as compared to the DMSO control)”.

On to `CC[C@H](Nc1ncnc2[nH]cnc12)c1nc2cccc(F)c2c(=O)n1-c1ccccc1` [CAL-101], for which the “MOLM-13 (summary of combination study: EPZ-5676 + 2nd compound)” value was “Synergy (considered synergistic if the IC50 value of the second compound decreased by 2-fold or more when EPZ-5676 was added as compared to the DMSO control)”.

Regarding `N.N.[Cl][Pt][Cl]` [Cisplatin], the “MOLM-13 (summary of combination study: EPZ-5676 + 2nd compound)” value is given as “Synergy (considered synergistic if the IC50 value of the second compound decreased by 2-fold or more when EPZ-5676 was added as compared to the DMSO control)”.

With `CC(C)(C)c1nc(-c2cccc(NS(=O)(=O)c3c(F)cccc3F)c2F)c(-c2ccnc(N)n2)s1` [Dabrafenib], the “MOLM-13 (summary of combination study: EPZ-5676 + 2nd compound)” value is “Synergy (considered synergistic if the IC50 value of the second compound decreased by 2-fold or more when EPZ-5676 was added as compared to the DMSO control)”.

On to `COc1cc([C@@H]2c3cc4c(cc3[C@@H](O[C@@H]3O[C@@H]5CO[C@@H](C)O[C@H]5[C@H](O)[C@H]3O)[C@H]3COC(=O)[C@H]23)OCO4)cc(OC)c1O` [Etoposide], for which the “MOLM-13 (summary of combination study: EPZ-5676 + 2nd compound)” value is “Synergy (considered synergistic if the IC50 value of the second compound decreased by 2-fold or more when EPZ-5676 was added as compared to the DMSO control)”.

As for `CO[C@H]1C[C@@H]2CC[C@@H](C)[C@@](O)(O2)C(=O)C(=O)N2CCCC[C@H]2C(=O)O[C@H]([C@H](C)C[C@@H]2CC[C@@H](OCCO)[C@H](OC)C2)CC(=O)[C@H](C)/C=C(\C)[C@@H](O)[C@@H](OC)C(=O)[C@H](C)C[C@H](C)/C=C/C=C/C=C/1C` [Everolimus], the “MOLM-13 (summary of combination study: EPZ-5676 + 2nd compound)” value is “Synergy (considered synergistic if the IC50 value of the second compound decreased by 2-fold or more when EPZ-5676 was added as compared to the DMSO control)”.

Turning to `COc1cc(Nc2ncc(F)c(Nc3ccc4c(n3)N(COP(=O)(O)O)C(=O)C(C)(C)O4)n2)cc(OC)c1OC` [Fostamatinib disodium], the “MOLM-13 (summary of combination study: EPZ-5676 + 2nd compound)” value was “Synergy (considered synergistic if the IC50 value of the second compound decreased by 2-fold or more when EPZ-5676 was added as compared to the DMSO control)”.

With `Cc1cccc(CC(=O)N2CCc3c2ccc(-c2cn(C)c4ncnc(N)c24)c3F)n1` [GSK2656157], the “MOLM-13 (summary of combination study: EPZ-5676 + 2nd compound)” value is on record as “Synergy (considered synergistic if the IC50 value of the second compound decreased by 2-fold or more when EPZ-5676 was added as compared to the DMSO control)”.

On to `c1ccc([C@@H]2C[C@H]2NC2CCNCC2)cc1` [GSK-LSD1], for which the “MOLM-13 (summary of combination study: EPZ-5676 + 2nd compound)” value was “Synergy (considered synergistic if the IC50 value of the second compound decreased by 2-fold or more when EPZ-5676 was added as compared to the DMSO control)”.

As for `Cn1c2ccccc2c2c3c(c4c5ccccc5n(CCC#N)c4c21)CNC3=O` [Go 6976], the “MOLM-13 (summary of combination study: EPZ-5676 + 2nd compound)” value is reported as “Synergy (considered synergistic if the IC50 value of the second compound decreased by 2-fold or more when EPZ-5676 was added as compared to the DMSO control)”.

For the compound `CCc1c2c(nc3ccc(OC(=O)N4CCC(N5CCCCC5)CC4)cc13)-c1cc3c(c(=O)n1C2)COC(=O)[C@]3(O)CC` [Irinotecan Hydrochloride], the “MOLM-13 (summary of combination study: EPZ-5676 + 2nd compound)” value is listed as “Synergy (considered synergistic if the IC50 value of the second compound decreased by 2-fold or more when EPZ-5676 was added as compared to the DMSO control)”.

For the compound `c1ccc2c(CCNc3ccc(Nc4ccncc4)cc3)c[nH]c2c1` [JNJ 26854165], the “MOLM-13 (summary of combination study: EPZ-5676 + 2nd compound)” value is “Synergy (considered synergistic if the IC50 value of the second compound decreased by 2-fold or more when EPZ-5676 was added as compared to the DMSO control)”.

For the compound `CC(=O)O/N=C1\C(=O)N(Cc2cc(Cl)ccc2Cl)c2ccc(Cl)cc21` [LDN 57444], the “MOLM-13 (summary of combination study: EPZ-5676 + 2nd compound)” value is “Synergy (considered synergistic if the IC50 value of the second compound decreased by 2-fold or more when EPZ-5676 was added as compared to the DMSO control)”.

For `Cc1cnc(NC(=O)Nc2cc(Br)c(C)cc2OC[C@@H]2CNCCO2)cn1` [LY2603618], the “MOLM-13 (summary of combination study: EPZ-5676 + 2nd compound)” value is “Synergy (considered synergistic if the IC50 value of the second compound decreased by 2-fold or more when EPZ-5676 was added as compared to the DMSO control)”.

In the case of `CS(=O)(=O)CCNCc1ccc(-c2ccc3ncnc(Nc4ccc(OCc5cccc(F)c5)c(Cl)c4)c3c2)o1` [Lapatinib], the “MOLM-13 (summary of combination study: EPZ-5676 + 2nd compound)” value is listed as “Synergy (considered synergistic if the IC50 value of the second compound decreased by 2-fold or more when EPZ-5676 was added as compared to the DMSO control)”.

Consider `Cc1cc(/N=N/c2ccc(S(=O)(=O)Nc3ccccn3)cc2)c(N)cc1O` [MS 436], for which the “MOLM-13 (summary of combination study: EPZ-5676 + 2nd compound)” value is reported as “Synergy (considered synergistic if the IC50 value of the second compound decreased by 2-fold or more when EPZ-5676 was added as compared to the DMSO control)”.

As for `Nc1ccccc1NC(=O)c1ccc(CNC(=O)OCc2cccnc2)cc1` [MS-275], the “MOLM-13 (summary of combination study: EPZ-5676 + 2nd compound)” value is reported as “Synergy (considered synergistic if the IC50 value of the second compound decreased by 2-fold or more when EPZ-5676 was added as compared to the DMSO control)”.

`CC1=CC(=O)c2ccccc2C1=O` [Menadione]: the “MOLM-13 (summary of combination study: EPZ-5676 + 2nd compound)” value is listed as “Synergy (considered synergistic if the IC50 value of the second compound decreased by 2-fold or more when EPZ-5676 was added as compared to the DMSO control)”.

On to `O=c1cc(N2CCOCC2)oc2c(-c3cccc4c3sc3ccccc34)cccc12` [NU 7441], for which the “MOLM-13 (summary of combination study: EPZ-5676 + 2nd compound)” value is recorded as “Synergy (considered synergistic if the IC50 value of the second compound decreased by 2-fold or more when EPZ-5676 was added as compared to the DMSO control)”.

Regarding `COc1ccc(C2=N[C@@H](c3ccc(Cl)cc3)[C@@H](c3ccc(Cl)cc3)N2C(=O)N2CCNC(=O)C2)c(OC(C)C)c1` [Nutlin-3], the “MOLM-13 (summary of combination study: EPZ-5676 + 2nd compound)” value is listed as “Synergy (considered synergistic if the IC50 value of the second compound decreased by 2-fold or more when EPZ-5676 was added as compared to the DMSO control)”.

On to `O=C(c1cc(Cc2n[nH]c(=O)c3ccccc23)ccc1F)N1CCN(C(=O)C2CC2)CC1` [Olaparib], for which the “MOLM-13 (summary of combination study: EPZ-5676 + 2nd compound)” value is on record as “Synergy (considered synergistic if the IC50 value of the second compound decreased by 2-fold or more when EPZ-5676 was added as compared to the DMSO control)”.

`Nc1cccc2c1C(=O)N(C1CCC(=O)NC1=O)C2=O` (stereo not drawn) [Pomalidomide]: the “MOLM-13 (summary of combination study: EPZ-5676 + 2nd compound)” value is given as “Synergy (considered synergistic if the IC50 value of the second compound decreased by 2-fold or more when EPZ-5676 was added as compared to the DMSO control)”.

With `O=C(c1ccc(OCCN2CCCCC2)cc1)c1c(-c2ccc(O)cc2)sc2cc(O)ccc12` [Raloxifene Hydrochloride], the “MOLM-13 (summary of combination study: EPZ-5676 + 2nd compound)” value is given as “Synergy (considered synergistic if the IC50 value of the second compound decreased by 2-fold or more when EPZ-5676 was added as compared to the DMSO control)”.

`Cc1cccc(-c2[nH]c(C(C)(C)C)nc2-c2ccc3c(c2)OCO3)n1` [SB-505124]: the “MOLM-13 (summary of combination study: EPZ-5676 + 2nd compound)” value is listed as “Synergy (considered synergistic if the IC50 value of the second compound decreased by 2-fold or more when EPZ-5676 was added as compared to the DMSO control)”.

For `O=C1c2ccccc2-c2nc3nonc3nc21` [SMER 3], the “MOLM-13 (summary of combination study: EPZ-5676 + 2nd compound)” value is “Synergy (considered synergistic if the IC50 value of the second compound decreased by 2-fold or more when EPZ-5676 was added as compared to the DMSO control)”.
